Patent publication US10407725B2, “Methods of treating autoimmune conditions in patients with genetic variations in DcR3 or in a DcR3 network gene” (The Children's Hospital of Philadelphia, priority 2015, dated 2019)
d = 2'-deoxy (DNA); r = 2'-OH (RNA)

Assays:
[1] = test system: canonical pathway in MM cell lines and tumors; conditions: cited from earlier work
[2] = test system: DcR3; assay: siRNA knockdown of DcR3 expression, immunoblot of whole cell lysates; format: cell-based, human; conditions: P (1/2) EBV cells, 100 nM siRNA, versus control siRNA; whole cell lysates 24, 48 and 72 hours post nucleofection
Procedure: The expression of DcR3 was reduced using siRNAs in the EBV transformed cell lines derived from control and IBD patients harboring risk variants in TNFRSF6B (A allele). Briefly, 3×10^6 cells were transfected with 100 nM DcR3 siRNA duplexes or with DcR3 non-silence control using Amaxa Nucleofector Kit and program T-20. The siRNA-transfected cells were incubated for 48 h after nucleofection and the degree of knockdown relative to introduction of control siRNA was confirmed by western blot using DcR3 mouse monoclonal antibody (Abgent) on whole cell lysates. The 21-mer siRNAs were synthesized by DHARMACON. The DcR3 siRNA sequences were as follows: sense sequence, 5′-GCC AGG CUC UUC CUC CCA UdTdT-3′ (SEQ ID NO: 1); antisense sequence, 5′-AUG GGA GGA AGA GCC UGG CdTdT-3′ (SEQ ID NO: 2). The non-silence control siRNA sequences were as follows: sense sequence, 5′-GCC CGC UUU CCC UCA GCA UdTdT-3′ (SEQ ID NO: 3); antisense sequence, 5′-AUG CUG AGG GAA AGC GGG C-3 (SEQ ID NO: 4).
(§1) Post 24, 48 and 72 hours of nucleofection, cells were harvested and whole cell lysates were evaluated for DcR3 expression by immunoblot analysis. […] Nucleofection had no adverse effect on cell viability (data not shown). In addition, cells nucleofected with control and DcR3 siRNA post 24 h were treated with sFasL and analysed for cell death using MTT Proliferation assay.

[3] = test system: patient EBV cells with heterozygous risk allele (1/2); assay: MTT proliferation assay of nucleofected cells treated with sFasL; format: cell-based, human; conditions: cells treated with sFasL 24 h post nucleofection; compared with control siRNA (CsiRNA) plus sFasL
Procedure: The effect of DcR3 on cell proliferation was measured by the colorimetric MTT assay using an MTT (Microtiter-tetrazolium, Sigma, USA) based assay. Briefly, the cells (5,000/ml) were incubated in triplicate in a 96-well plate (Costar, Cambridge, Mass., USA) in a final volume of 0.2 ml for the indicated times. Thereafter, 20 μl of MTT solution (5 g/L) was added to each well and then incubated for 12 h. After centrifugation, the supernatant was removed from each well. The colored formazan crystal produced from MTT was dissolved in 0.15 ml of DMSO and then the optical density (OD) value was measured on a microplate reader. Each experiment was performed in duplicate and repeated five times.
as §1

Row | Molecule | off-target effect on canonical NF-κB pathway [1] | DcR3 expression post nucleofection [2] | cell growth (MTT) after sFasL treatment [3]
1 | CC(C)C[C@H](NC(=O)[C@H](Cc1ccccc1)NC(=O)c1cnccn1)B(O)O [Velcade bortezomib, bortezomib] | induce up-regulation of the canonical pathway | – | –
2 | DcR3 siRNA: 21-mer siRNA duplex, sense 5′-GCC AGG CUC UUC CUC CCA UdTdT-3′, antisense 5′-AUG GGA GGA AGA GCC UGG CdTdT-3′, synthesized by DHARMACON (sense GCCAGGCUCUUCCUCCCAUTT; antisense AUGGGAGGAAGAGCCUGGCTT; sugars from the 5' end r19 d2, backbone not given here) | – | reduced DcR3 levels first seen at 24 h and maintained for at least 48 h | decrease in cell growth
